Test results taken from patent publication US6699863B1, “Kinase inhibitors for the treatment of disease” (Allergan, Inc., priority 2002, dated 2004).

Experiments:
[1] = target: T1, human VEGF receptor (VEGFR-2) (Homo sapiens, UniProt P35968); assay: VEGFR2 Kinase Assay; assay type: biochemical; conditions: 3.6 μM ATP, poly-Glu-Tyr (4:1)
T1 construct: The cytoplasmic domain of the human VEGF receptor (VEGFR-2) was expressed; His (histidine tag); made in house; host or cells: insect cells (engineered baculovirus)
T1 sequence (P35968 786-1356 limits assumed): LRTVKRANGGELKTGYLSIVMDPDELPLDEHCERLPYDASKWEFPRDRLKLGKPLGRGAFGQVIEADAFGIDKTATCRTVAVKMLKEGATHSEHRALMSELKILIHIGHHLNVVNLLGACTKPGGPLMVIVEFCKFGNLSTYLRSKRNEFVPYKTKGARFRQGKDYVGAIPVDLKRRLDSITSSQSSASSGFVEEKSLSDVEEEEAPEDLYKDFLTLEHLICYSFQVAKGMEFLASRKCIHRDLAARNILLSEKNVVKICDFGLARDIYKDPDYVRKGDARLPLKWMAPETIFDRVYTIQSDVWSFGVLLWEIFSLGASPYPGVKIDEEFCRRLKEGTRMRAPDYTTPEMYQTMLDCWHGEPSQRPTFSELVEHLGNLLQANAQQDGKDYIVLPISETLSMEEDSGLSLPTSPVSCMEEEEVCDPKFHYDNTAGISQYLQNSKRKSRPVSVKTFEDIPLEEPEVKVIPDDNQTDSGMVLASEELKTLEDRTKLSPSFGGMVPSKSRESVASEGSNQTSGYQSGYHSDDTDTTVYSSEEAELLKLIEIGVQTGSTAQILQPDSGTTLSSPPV
Description: The cytoplasmic domain of the human VEGF receptor (VEGFR-2) was expressed as a Hisfidine-tagged fusion protein following infection of insect cells using an engineered baculovirus. His-VEGFR-2 was purified to homogeneity, as determined by SDS-PAGE, using nickel resin chromatography. Kinase assays were performed in 96 well microtiter plates that were coated overnight with 30 μg of poly-Glu-Tyr (4:1) in 10 mM Phosphate Buffered Saline (PBS), pH 7.2-7.4. The plates were incubated with 1% BSA and then washed four times with PBS prior to starting the reaction. Reactions were carried out in 120 μL reaction volumes containing 3.6 μM ATP in kinase buffer (50 mM Hepes buffer pH 7.4, 20 mM MgCl2, 0.1 mM MnCl2 and 0.2 mM Na3VO4). Test compounds were reconstituted in 100% DMSO and added to the reaction to give a final DMSO concentration of 5%. Reactions were initiated by the addition 0.5 ng of purified protein. Following a ten minute incubation at 25° C., the reactions were washed four times with PBS containing 0.05% Tween-20. 100 μl of a monoclonal anti-phosphotyrosine antibody-peroxidase conjugate was diluted 1:10000 in PBS-Tween-20 and added to the wells for 30 minutes. Following four washes with PBS-Tween-20, 100 μl of O-phenylenediamine Dihydrochloride in Phosphate-citrate buffer, containing urea hydrogen peroxide, was added to the wells for 7 minutes as a colorimetric substrate for the peroxidase. The reaction was terminated by the addition of 100 μl of 2.5N H2SO4 to each well and read using a microplate ELISA reader set at 492 nm. IC50 values for compound inhibition were calculated directly from graphs of optical density (arbitrary units) versus compound concentration following subtraction of blank values.

[2] = tested on: VEGF induced increases in intracellular calcium levels in HUVEC (human umbilical vein endothelial cells); assay: VEGF Stimulated Ca++ Signal In vitro (FLIPR); assay type: cell-based; conditions: VEGF stimulation 5 ng/mL, 30 min pre-incubation
Description: Automated FLIPR (Fluorometric Imaging Plate Reader) technology was used to screen for inhibitors of VEGF induced increases in intracellular calcium levels in fluorescent dye loaded endothelial cells. HUVEC (human umbilical vein endothelial cells) (Clonetics) were seeded in 96-well fibronectin coated black-walled plates overnight at 37° C./5%CO2. Cells were loaded with calcium indicator Fluo-4 for 45 minutes at 37° C. Cells were washed 4 times (Original Cell Wash, Labsystems) to remove extracellular dye. Test compounds were reconstituted in 100% DMSO and added to the cells to give a final DMSO concentration of 0.1%. For screening, cells were pre-incubated with test agents for 30 minutes, at a single concentration (10 μM) or at concentrations ranging from 0.01 to 10.0 μM followed by VEGF stimulation (5 ng/mL). Changes in fluorescence at 516 nm were measured simultaneously in all 96 wells using a cooled CCD camera. Data were generated by determining max-min fluorescence levels for unstimulated, stimulated, and drug treated samples. IC50 values for test compounds were calculated from % inhibition of VEGF stimulated responses in the absence of inhibitor.

[3] = tested on: VEGF-induced EBD extravasation; assay: VEGF-induced Dermal Extravasation in Guinea Pig (Miles Assay); assay type: in vivo; conditions: vehicle corn oil; for % Inhibition @ Dose (mg/Kg): 75 mg/Kg single oral dose
Description: Male Hartley guinea pigs (300-600 g) were anesthetized with isofluorane, sheared, and given a single dose of drug or the respective vehicle. The guinea pigs were dosed orally unless indicated otherwise in Table 3. Ten minutes prior to the end of drug treatment, guinea pigs were anesthetized with isofluorane, and 0.5% Evans blue dye (EBD) in PBS (13-15 mg/kg dose of EBD) was injected intravenously. After 5 minutes, triplicate intradermal injections of 100 ng rhVEGF165 in 100 μl PBS and of 100 μl PBS alone were administered on the flank. After 20 minutes, each animal was euthanized with Pentosol, and the skin containing the intradermal injection sites was removed for image analysis.
Using an analog video camera coupled to a PC, an image of each trans-illuminated skin sample was captured, and the integrated optical density of each injection site was measured using ImagePro 4. For each skin sample, the difference between the mean optical density of the VEGF sites and mean optical density of the PBS sites is the measure of VEGF-induced EBD extravasation in that animal. These measured values were averaged per study group to determine the mean VEGF-induced EBD extravasation for each experimental condition, and the group means were then compared to assess inhibition of VEGF-induced EBD extravasation in the drug-treated groups relative to the vehicle-treated controls.
(§1) To determine the dose required for 50% inhibition (ID50), the percent inhibition data was plotted as a function of oral dose, using the ‘best-fit’ analysis within MicroSoft Excel software. The ID50 value was verified visually by using the plotted data (horizontal line from 50% y value, at intersection with best-fit line drop vertical line to x axis (dose).

[4] = physchem; assay type: physicochemical; conditions: buffer
Description: The chemical stability of Example 12 of the invention has been studied using buffers at pH 1, pH 3 and pH 7. Example 12 prepared in acetonitrile at 200 μg/mL and diluted to 20 μg/mL in buffers at pH 1, pH 3 and pH 7.

[5] = tested on: laser-induced choroidal neovascularization; assay: Laser-induced Choroidal Neovascularization (CNV) in Rat (CNV Assay); assay type: in vivo; conditions: vehicle corn oil
Description: CNV was induced and quantified in this model as previously described (Edelman and Castro. Exp. Eye Res. 2000; 71:523-533). On day 0, male Brown Norway rats (200-300 g) were anesthetized with 100 mg/kg Ketamine and 10 mg/kg Xylazine, and pupils were dilated with 1% Tropicamide. Using the blue-green setting of a Coherent Novus Argon Laser, 3 laser bums (90 mW for 0.1 s; 100 μm diameter) were given to each eye between the retinal vessels around the optic nerve head. Rats were dosed with test compounds in their indicated vehicles orally once daily.
On day 10, rats were sacrificed with 100% CO2, and blood vessels were labeled by vascular perfusion with 10 mg/ml FITC-dextran (MW 2×10^6). Using an epifluorescence microscope (20×) coupled to a spot digital camera and a PC, images were obtained from the flat mounts of the RPE-choroid-sclera from each eye, and the area occupied by hyperfluorescent neovessels within each laser lesion was measured using ImagePro 4 software.
as §1

IC50 [1] [nM] | SMILES | IC50 [2] [nM] | % Inhibition @ Dose (mg/Kg) [3] [% @ 75 mg/Kg] | other results
31 | CN(C)c1ccc2c(c1)COC2=C1C(=O)Nc2ccccc21 [Example 18, 3-(5-Dimethylamino-3H-isobenzofuran-1-ylidene)-1,3-dihydro-indol-2-one] | 22 | – | –
– | O=C1Nc2ccccc2C1=C1OCc2ccccc21 [Example 14, 3-(3H-isobenzofuran-1-ylidene)-1,3-dihydro-indol-2-one] | 110 | – | –
22 | CN(C)c1ccc2c(c1)COC2=C1C(=O)Nc2ccc(Cl)cc21 [Example 20, 5-Chloro-3-(5-dimethylamino-3H-isobenzofuran-1-ylidene)-1,3-dihydro-indol-2-one] | 33 | – | –
133 | CN(C)c1ccc2c(c1)COC2=C1C(=O)N(CN2CCCCC2)c2ccccc21 [Example 19, 3-(5-Dimethylamino-3H-isobenzofuran-1-ylidene)-1-piperidin-1-ylmethyl-1,3-dihydro-indol-2-one] | 120 | – | –
3860 | O=C1C(=CNc2ccc(N3CCOCC3)cc2)c2ccccc2N1CN1CCOCC1 [Example 13, 1-Morpholin-4-ylmethyl-3-[(4-morpholin-4-yl-phenylamino)-methylene]-1,3-dihydro-indol-2-one] | 722 | 35 | –
260 | O=C1Nc2ccccc2C1=CNc1ccc(N2CCOCC2)cc1 [Example 11, 3-[(4-morpholinophenylamino)-methylene]-1,3-dihydro-indol-2-one] | 294 | 40 | –
478 | O=C1C(=CNc2ccc(N3CCOCC3)cc2)c2ccccc2N1CN1CCCCC1 [Example 12, 3-[(4-Morpholin-4-yl-phenylamino)-methylene]-1-piperidin-1-ylmethyl-1,3-dihydro-indol-2-one] | 432 | 88 | half-life at 20 μg/mL ([4]; pH 1): ~38 h; half-life at 20 μg/mL ([4]; pH 3): ~20 h; half-life at 20 μg/mL ([4]; pH 7.4): < 0.5 h; % Inhibition @ Dose (mg/Kg) ([5]; 80 mg/Kg (sid) oral once daily, day 10): 94% @ 80 mg/Kg (sid); ID50 ([5]; oral once daily): 36 mg/kg; ID50 ([3]; oral): 36 mg/kg
